Experimental data: patent US7605175B2, “Inhibitors of cyclin-dependent kinases, compositions and uses related thereto” (GPC Biotech AG, priority 2001, dated 2009)

Key:
[1] = tested on: HCT-116 cells; assay: Calcein AM viability assay, HCT-116; assay type: cell-based; settings: Homo sapiens, HCT-116, plus 1 mg/ml alpha acidic glycoprotein and 45 mg/ml human serum albumin; read-out: HCT-116 IC50 Protein adjusted
Summary of the method: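 Cells plated (1,000 HCT-116 in RPMI-1640/10% FCS; 4,000 IMR90 in MEM-alpha/10% FCS), adhered overnight, then given 7 doses of compound at 0-250 nM for 72 h at 37 °C. Viability read by Calcein AM fluorescence (ex 485, em 530) after 75 min; IC50 derived.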

[2] = tested on: HCT-116 cells; assay: BrdU incorporation assay; assay type: cell-based; settings: Homo sapiens, read-out: Brd U, concentration that inhibits BrdU incorporation by 50%
Summary of the method: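 HCT-116 cells were exposed to compound, then analysed at 24, 48 and 72 h; 10 μM BrdU (final) was added for 16-18 h at 37° C. After fixation, permeabilisation and DNase treatment, BrdU incorporation was read by flow cytometry; values are compound concentrations (μM) giving 50% inhibition.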

[3] = molecular target: T1, Cdk4/cyclin D1 (Homo sapiens, UniProt P11802); assay: Biochemical kinase assay Cdk4/cyclin D1; settings: Table 6
T1 construct: made in house; host or cells: Sf9 insect cells
Summary of the method: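 Sf9-expressed Cdk/cyclin heterodimers phosphorylate GST-Rb (residues 379–928, 40 μg) with 50 μM ATP plus [γ-33P]ATP, pH 7.5, 10% DMSO, 15 min at 30 °C. Compounds 1 nM–10 μM. 33P captured on glutathione-sepharose and scintillation-counted; activity relative to DMSO control after EDTA-background subtraction.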

T1 sequence (P11802 whole entry, species assumed): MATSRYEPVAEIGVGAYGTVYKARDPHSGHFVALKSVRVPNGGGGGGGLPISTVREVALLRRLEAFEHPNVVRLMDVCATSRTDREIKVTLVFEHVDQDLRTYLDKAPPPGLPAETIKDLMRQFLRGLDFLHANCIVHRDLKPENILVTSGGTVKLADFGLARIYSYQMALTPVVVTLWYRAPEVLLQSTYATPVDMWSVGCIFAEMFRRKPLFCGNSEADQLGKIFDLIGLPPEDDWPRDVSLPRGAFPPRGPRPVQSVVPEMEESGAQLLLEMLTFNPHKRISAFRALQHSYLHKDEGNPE
T1 sequence (P24385 whole entry partner, species assumed): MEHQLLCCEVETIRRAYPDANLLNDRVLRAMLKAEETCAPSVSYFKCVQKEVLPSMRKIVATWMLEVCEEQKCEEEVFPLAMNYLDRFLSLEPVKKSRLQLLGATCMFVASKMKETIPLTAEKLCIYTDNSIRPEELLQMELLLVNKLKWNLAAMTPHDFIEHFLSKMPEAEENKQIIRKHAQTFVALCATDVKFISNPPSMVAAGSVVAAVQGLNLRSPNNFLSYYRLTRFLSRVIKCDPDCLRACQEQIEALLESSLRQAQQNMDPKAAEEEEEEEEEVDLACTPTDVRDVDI

IC50 [1] [µM]	IC50 ([2]; HCT-116, 24 h) [µM]	IC50 ([2]; HCT-116, 48 h) [µM]	Structure (SMILES)	IC50 [3] [µM]
< 1	< 0.1	< 0.1	CC(C)c1nn(-c2c(Cl)cccc2Cl)c2nc(Cc3ccc(O)c(CN4CCN(C(C)C)CC4)c3)[nH]c(=O)c12 [Compound C]	–
–	–	–	CC(C)N1CCN(C(=O)COc2ccc(-c3[nH]nc4c3C(=O)c3c(NC(=O)NN5CCOCC5)cccc3-4)cc2)CC1.Cl [Compound A37]	< 0.1
